Assay: Study in five subjects with urinary bladder dysfunction symptoms taking Jasmone once a day for 30 days
Type: in vivo, human
Text: Five subjects, 4 male and 1 female agreed to participate in the study. Subjects ranged in age from 55-73 with average age being 67. All participants experienced noticeable urinary bladder dysfunction symptoms including frequency, urgency, and reduced urine flow. Subjects took from 50 to 100 micrograms of Jasmone once a day for 30 days. At two weeks approximately ½ of the subjects experienced improved bladder function. […] For example, several subjects noted that before treatment they averaged 2 night time awakenings to urinate which was reduced to 1 or 0 subsequent to taking Jasmone. Other subjects had even greater improvement from an average of 3-4 night awakenings to urinate to 1. […] In addition several male subjects reported increased flow of discharge up to 100%.

Question: Which results are given for `CC/C=C\CC1=C(C)CCC1=O` [Jasmone]?
Answer: reduction of daytime bathroom visits (50 to 100 micrograms once a day for 30 days): approximately 50%; fraction of subjects who experienced improved bladder function (at two weeks, 50 to 100 micrograms of Jasmone once a day, five subjects aged 55-73): approximately ½; subject-reported improvements in frequency, urgency, and urine flow (by day thirty, 50 to 100 micrograms once a day): all subjects reported improvements in frequency, urgency, and urine flow; night awakenings to urinate after treatment (other subjects, average of 3-4 before treatment): 1; increased flow of discharge (several male subjects): up to 100%; "holding time" (urgency) after treatment (several patients, from approximately 10 minutes before treatment, i.e. during extended air travel): ~60 min
